pEC50: −log10 of the molar value. Where two headings read alike, the source gives them in different places.
Experiments:
M3 muscarinic receptor = biological target: T1, M3 muscarinic receptor (Homo sapiens, UniProt P20309); assay: Receptor Selection and Amplification (R-SAT) assay, cloned M3 receptor; type: cell-based; conditions: for M3 Eff / EC50: R-SAT, second table (COMPOUND ID series); for EC50: read-out: M3 pEC50 (converted)
T1 construct: expressed in transfected cells
Text: (§1) The EC50 for an agonist is intended to denote the concentration of a compound needed to achieve 50% of a maximal response seen in an in vitro assay such as R-SAT. For inverse agonists, EC50 is intended to denote the concentration of a compound needed to achieve 50% inhibition of an R-SAT response from basal, no compound, levels.
(§2) A particularly convenient functional assay system is the receptor selection and amplification assay (R-SAT assay) in U.S. Pat. No. 5,707,798, which describes a method of screening for bioactive compounds by utilizing the ability of cells transfected with receptor DNA, e.g., coding for the different muscarinic subtypes, to amplify in the presence of a ligand of the receptor. Cell amplification is detected as increased levels of a marker also expressed by the cells.
(§3) Receptor Selection and Amplification (R-SAT) assays were carried out using the cloned M1-M5 receptors essentially as described in: Brauner-Osborne H, Brann M R. Pharmacology of muscarinic acetylcholine receptor subtypes (m1-m5): high throughput assays in mammalian cells. Eur J Pharmacol Jan. 4, 1996;295(1):93-102, and Spalding T A, Trotter C, Skjaerbaek N, Messier T L, Currier E A, Burstein E S, Li D, Hacksell U, Brann M R. Discovery of an ectopic activation site on the M(1) muscarinic receptor. Mol Pharmacol. 2002 June;61(6):1297-302.

M2 muscarinic receptor = biological target: T2, M2 muscarinic receptor (Homo sapiens, UniProt P08172); assay: Receptor Selection and Amplification (R-SAT) assay, cloned M2 receptor; type: cell-based; set-up: M2 Eff: scale not given here; conditions: for M2 Eff / EC50 / Emax: R-SAT; for pEC50: M2 pEC50, R-SAT; for Emax: read-out: m2 % Efficacy
T2 construct: expressed in transfected cells
T2 sequence (P08172 1-466): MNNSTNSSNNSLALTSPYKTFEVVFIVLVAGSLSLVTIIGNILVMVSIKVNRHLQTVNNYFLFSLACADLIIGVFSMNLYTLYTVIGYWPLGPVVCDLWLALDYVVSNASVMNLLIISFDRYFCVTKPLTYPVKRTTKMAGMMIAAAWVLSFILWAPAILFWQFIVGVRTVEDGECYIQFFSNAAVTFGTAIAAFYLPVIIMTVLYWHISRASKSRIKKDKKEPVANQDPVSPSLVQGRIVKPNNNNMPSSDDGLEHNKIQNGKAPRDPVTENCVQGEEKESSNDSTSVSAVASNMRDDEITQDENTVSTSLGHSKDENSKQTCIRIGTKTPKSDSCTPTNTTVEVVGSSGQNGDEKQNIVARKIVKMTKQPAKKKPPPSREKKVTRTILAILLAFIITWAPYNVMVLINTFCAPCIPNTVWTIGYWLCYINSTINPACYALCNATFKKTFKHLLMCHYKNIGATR
Text: as §1, §2, §3

M1 muscarinic receptor = biological target: T3, M1 muscarinic receptor (Homo sapiens, UniProt P11229); assay: Receptor Selection and Amplification (R-SAT) assay, cloned M1 receptor; type: cell-based; set-up: M1 Eff: scale not given here; conditions: for M1 Eff / EC50 / Emax: R-SAT; for pEC50: M1 pEC50, R-SAT; for Emax: read-out: m1 % Efficacy
T3 construct: expressed in transfected cells
T3 sequence (P11229 1-460): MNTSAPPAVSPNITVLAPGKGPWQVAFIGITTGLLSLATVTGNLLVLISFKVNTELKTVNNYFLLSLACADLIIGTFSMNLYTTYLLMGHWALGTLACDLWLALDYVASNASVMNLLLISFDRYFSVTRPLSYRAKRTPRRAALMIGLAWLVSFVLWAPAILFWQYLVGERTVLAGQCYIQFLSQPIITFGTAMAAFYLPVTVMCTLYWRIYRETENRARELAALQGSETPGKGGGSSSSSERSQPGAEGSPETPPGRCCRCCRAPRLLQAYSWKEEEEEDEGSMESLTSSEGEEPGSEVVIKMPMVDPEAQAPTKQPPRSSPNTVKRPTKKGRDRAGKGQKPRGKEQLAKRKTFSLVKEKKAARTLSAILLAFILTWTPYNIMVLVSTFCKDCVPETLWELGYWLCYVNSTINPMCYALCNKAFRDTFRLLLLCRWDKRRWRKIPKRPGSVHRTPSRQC
Text: as §1, §2, §3

M4 muscarinic receptor = biological target: T4, M4 muscarinic receptor (Homo sapiens, UniProt P08173); assay: Receptor Selection and Amplification (R-SAT) assay, cloned M4 receptor; type: cell-based; conditions: R-SAT, cloned m4 receptor; for Emax: read-out: m4 % Efficacy; for EC50: read-out: m4 pEC50 (converted)
T4 construct: expressed in transfected cells
T4 sequence (P08173 1-479): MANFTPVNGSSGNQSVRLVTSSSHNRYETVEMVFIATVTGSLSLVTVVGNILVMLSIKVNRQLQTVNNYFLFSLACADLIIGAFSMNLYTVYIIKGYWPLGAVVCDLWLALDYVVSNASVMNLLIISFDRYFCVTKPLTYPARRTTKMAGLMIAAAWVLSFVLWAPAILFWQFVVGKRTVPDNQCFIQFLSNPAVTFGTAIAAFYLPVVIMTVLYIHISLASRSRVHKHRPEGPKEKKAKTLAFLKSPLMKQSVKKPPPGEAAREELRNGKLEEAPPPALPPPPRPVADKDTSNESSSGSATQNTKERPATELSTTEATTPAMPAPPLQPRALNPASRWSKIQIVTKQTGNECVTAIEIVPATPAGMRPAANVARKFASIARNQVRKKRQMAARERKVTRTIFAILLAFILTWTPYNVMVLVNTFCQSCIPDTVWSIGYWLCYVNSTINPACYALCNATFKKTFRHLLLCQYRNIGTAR
Text: as §1, §2, §3

M5 muscarinic receptor = biological target: T5, M5 muscarinic receptor (Homo sapiens, UniProt P08912); assay: Receptor Selection and Amplification (R-SAT) assay, cloned M5 receptor; type: cell-based; conditions: for Emax: read-out: m5 % Efficacy; for EC50: read-out: m5 pEC50 (converted)
T5 construct: expressed in transfected cells
T5 sequence (P08912 1-532): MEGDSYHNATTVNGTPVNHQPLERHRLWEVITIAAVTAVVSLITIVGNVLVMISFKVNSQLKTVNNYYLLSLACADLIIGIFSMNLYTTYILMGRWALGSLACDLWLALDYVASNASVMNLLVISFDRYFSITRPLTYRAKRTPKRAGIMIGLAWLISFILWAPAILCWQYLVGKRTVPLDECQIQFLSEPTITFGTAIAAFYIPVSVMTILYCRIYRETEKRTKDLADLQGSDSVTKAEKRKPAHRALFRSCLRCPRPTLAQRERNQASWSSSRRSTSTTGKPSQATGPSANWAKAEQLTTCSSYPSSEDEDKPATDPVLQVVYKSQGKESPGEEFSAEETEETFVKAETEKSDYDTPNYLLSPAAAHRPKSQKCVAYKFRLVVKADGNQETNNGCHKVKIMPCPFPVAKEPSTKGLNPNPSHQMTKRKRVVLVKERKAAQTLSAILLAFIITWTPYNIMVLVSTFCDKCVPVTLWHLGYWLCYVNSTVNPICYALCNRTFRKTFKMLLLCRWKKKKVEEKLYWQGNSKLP
Text: as §1, §2, §3

[1] = some AChE inhibitors, such as tacrine; cited from earlier work
[2] = second table (COMPOUND ID series)
[3] = second table (COMPOUND ID series), read-out: M2 pEC50 (converted)
[4] = second table (COMPOUND ID series), read-out: M1 pEC50 (converted)
[5] = cloned m2 receptor, read-out: m2 pEC50 (converted)
[6] = cloned m1 receptor, read-out: m1 pEC50 (converted)

T1 sequence (P20309 whole entry): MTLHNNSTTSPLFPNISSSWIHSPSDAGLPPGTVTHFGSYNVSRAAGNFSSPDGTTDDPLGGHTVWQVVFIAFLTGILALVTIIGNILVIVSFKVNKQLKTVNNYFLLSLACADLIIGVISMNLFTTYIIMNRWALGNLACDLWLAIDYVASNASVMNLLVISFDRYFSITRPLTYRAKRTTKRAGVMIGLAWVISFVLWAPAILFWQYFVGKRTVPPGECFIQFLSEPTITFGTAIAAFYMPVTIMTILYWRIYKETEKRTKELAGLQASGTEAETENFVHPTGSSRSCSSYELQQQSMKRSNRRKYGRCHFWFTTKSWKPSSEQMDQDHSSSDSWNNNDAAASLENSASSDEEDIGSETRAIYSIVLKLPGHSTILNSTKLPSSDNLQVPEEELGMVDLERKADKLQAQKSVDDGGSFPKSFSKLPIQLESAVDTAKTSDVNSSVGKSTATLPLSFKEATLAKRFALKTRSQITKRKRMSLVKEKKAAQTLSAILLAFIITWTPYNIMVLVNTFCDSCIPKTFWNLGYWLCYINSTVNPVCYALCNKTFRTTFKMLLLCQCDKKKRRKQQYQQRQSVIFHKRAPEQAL

With `CC(CN1CCC(OCC2CC2)CC1)CN1C(=O)COc2ccccc21` (racemic) [Compound 00262273, (R,S)-4-[3-(4-Cyclopropylmethoxypiperidin-1-yl)-2-methylpropyl]-4H-benzo[1,4]oxazin-3-one] the “M3 Eff” value (M3 muscarinic receptor) was 35, the EC50 (M3 muscarinic receptor) was 1580 nM and the “M2 Eff” value (M2 muscarinic receptor; [2]) was 98. For the same molecule, the EC50 (M2 muscarinic receptor; [3]) was 794 nM, the “M1 Eff” value (M1 muscarinic receptor; [2]) was 155 and the EC50 (M1 muscarinic receptor; [4]) was 25.1 nM.

For `CCON=C1CC2CCC(C1)N2C[C@@H](C)CN1C(=O)COc2ccccc21` (single isomer, unassigned) [Compound 00261435], the pEC50 (M3 muscarinic receptor) was 6.20, the “M3 Eff” value (M3 muscarinic receptor) was 82.8 and the pEC50 (M2 muscarinic receptor; [2]) was 7.10. For the same molecule, the “M2 Eff” value (M2 muscarinic receptor; [2]) was 128, the pEC50 (M1 muscarinic receptor; [2]) was 8.40 and the “M1 Eff” value (M1 muscarinic receptor; [2]) was 121.

With `CCOCCC1CC2CCC(C1)N2CC(C)CN1C(=O)COc2ccccc21` (single isomer, unassigned) [Compound 00263201] the pEC50 (M3 muscarinic receptor) was 6.80, the “M3 Eff” value (M3 muscarinic receptor) was 30 and the pEC50 (M2 muscarinic receptor; [2]) was 7.10. For the same molecule, the “M2 Eff” value (M2 muscarinic receptor; [2]) was 52, the pEC50 (M1 muscarinic receptor; [2]) was 9.00 and the “M1 Eff” value (M1 muscarinic receptor; [2]) was 126.

`CCCCC1CCN(CCCN2C(=O)COc3ccc(C)cc32)CC1` [Compound 64LHY89-6, 4-[3-(4-Butyl-piperidin-1-yl)-propyl]-6-methyl-4H-benzo[1,4]oxazin-3-one] showed an Emax (M2 muscarinic receptor; cloned m2 receptor) of 35%, an EC50 (M2 muscarinic receptor; [5]) of 631 nM and an Emax (M4 muscarinic receptor) of 50%. It also gave an EC50 (M4 muscarinic receptor) of 316 nM, an Emax (M5 muscarinic receptor) of 48% and an EC50 (M5 muscarinic receptor) of 631 nM. It also gave an Emax (M1 muscarinic receptor; cloned m1 receptor) of 80% and an EC50 (M1 muscarinic receptor; [6]) of 39.8 nM.

In the case of `CCCCC1CCN(CCCN2CCOc3ccc(CC)cc32)CC1` [Compound 64LHY91-5, 4-[3-(4-Butyl-piperidin-1-yl)-propyl]-6-ethyl-3,4-dihydro-2H-benzo[1,4]oxazine], the Emax (M4 muscarinic receptor) was 51%, the EC50 (M4 muscarinic receptor) was 2000 nM and the Emax (M5 muscarinic receptor) was 38%. It also gave an EC50 (M5 muscarinic receptor) of 631 nM, an Emax (M1 muscarinic receptor; cloned m1 receptor) of 69% and an EC50 (M1 muscarinic receptor; [6]) of 158 nM.

With `CCCCC1CCN(CCCN2C(=O)CCc3cc(OC)ccc32)CC1` [Compound 77LH22-A, 1-[3-(4-Butyl-piperidin-1-yl)-propyl]-6-methoxy-3,4-dihydro-1H-quinolin-2-one] the Emax (M5 muscarinic receptor) was 37%, the EC50 (M5 muscarinic receptor) was over 3160 nM and the Emax (M1 muscarinic receptor; cloned m1 receptor) was 76%. The EC50 (M1 muscarinic receptor; [6]) was 79.4 nM.

For `CCCCC1CCN(CCCN2C(=O)COc3cc(F)ccc32)CC1` [Compound 81MF763, 4-[3-(4-Butylpiperidin-1-yl)propyl]-7-fluoro-4H-benzo[1,4]oxazin-3-one], the Emax (M2 muscarinic receptor; cloned m2 receptor) was 47%, the EC50 (M2 muscarinic receptor; [5]) was 251 nM and the Emax (M4 muscarinic receptor) was 57%. It also gave an EC50 (M4 muscarinic receptor) of 398 nM, an Emax (M5 muscarinic receptor) of 50% and an EC50 (M5 muscarinic receptor) of 1260 nM. It also gave an Emax (M1 muscarinic receptor; cloned m1 receptor) of 92%.

In the case of `C[C@H](CN1CCC(OCC2CC2)CC1)CN1C(=O)COc2ccccc21` [Compound 00262908, 4-[(R)-3-(4-Cyclopropylmethoxypiperidin-1-yl)-2-methylpropyl]-4H-benzo[1,4]oxazin-3-one], the “M3 Eff” value (M3 muscarinic receptor) was 74, the EC50 (M3 muscarinic receptor) was 2510 nM and the “M2 Eff” value (M2 muscarinic receptor; [2]) was 103. For the same molecule, the EC50 (M2 muscarinic receptor; [3]) was 631 nM, the “M1 Eff” value (M1 muscarinic receptor; [2]) was 126 and the EC50 (M1 muscarinic receptor; [4]) was 12.6 nM.

For `C[C@@H](CN1C(=O)COc2ccccc21)CN1[C@@H]2CC[C@H]1C[C@@H](OCC1CC1)C2` [Compound 00262909, (R)-4-[3-(3a -Cyclopropylmethoxy-8-azabicyclo[3.2.1]oct-8-yl)-2-methylpropyl]-4H-benzo[1.4]oxazin-3-one], the pEC50 (M3 muscarinic receptor) was 6.40, the “M3 Eff” value (M3 muscarinic receptor) was 52 and the pEC50 (M2 muscarinic receptor; [2]) was 7.40. For the same molecule, the “M2 Eff” value (M2 muscarinic receptor; [2]) was 124, the pEC50 (M1 muscarinic receptor; [2]) was 8.60 and the “M1 Eff” value (M1 muscarinic receptor; [2]) was 137.

For `Nc1c2c(nc3ccccc13)CCCC2` [tacrine], the “patients with elevated liver transaminases (significant hepatotoxicity)” value [1] is listed as “about 30%”.

Source: patent US7550459B2, “Tetrahydroquinoline analogues as muscarinic agonists” (Acadia Pharmaceuticals, Inc., priority 2001, dated 2009)
